Where no end group is shown, it is not given here.
Key:
[1] = test system: CREB-S133; experiment: CREB phosphorylation by western blot in keratinocytes after solar simulated UV; type: cell-based; details: 0.1 μM, 1 μM and 5 μM added immediately following ssUV irradiation
Procedure: The influence of the polypeptide IK34720 (SEQ ID NO: 3) on CREB phosphorylation was assessed using the following protocol.
Keratinocytes were harvested and cultured as previously described (Gupta et al., J Invest Dermatol, 2007, 127 (3): 707-215). Keratinocytes, (passages 1-5) from 3 independent donors were used in the experiments illustrated in FIG. 3.
Positive control treatment (denoted “D” in FIG. 3) was prepared by solubilizing Calcitriol (1,25-dihydroxyvitamin D3 (1,25 (OH)2D3)-Cayman Chemical, MI, USA) in 100% spectroscopic ethanol (Merck, Darmstadt, Germany) and the final concentration was determined by spectroscopy (NanoDrop 2000, Thermo Fisher Scientific, MA, USA). The polypeptide IK34720 (SEQ ID NO: 3) was solubilised in phosphate buffered saline (PBS) to a concentration of 1 mM at pH 7.2. A vehicle (denoted as “V” in FIG. 3) constituting 0.1% (v/v) spectroscopic ethanol and 0.1% (v/v) PBS was prepared for use as a negative control.
Cultured cells were irradiated by solar simulated UV-irradiation (ssUV) using an Oriel 1000W xenon-arc lamp (Stratford, CT, USA). Irradiation was administered at an energy level of 400 mJ/cm^2 for UVB and 3600 mJ/cm^2 for UVA (total 4000 mJ/cm^2), measured by an OL754 radiometer (Optronics Laboratories Inc., Orlando, FL). This dosage equates to approximately 4 min irradiation of the sun at 12 noon in October in Sydney, Australia. […]

[2] = test system: Aquaporin 3; experiment: Aquaporin 3 expression in keratinocytes exposed to HEV (blue) light; type: cell-based, human; details: NHEK exposed to HEV (blue) light; for increase in number of Aquaporin 3 positive cells: 470 nm, 3 days
Procedure: The ability of the polypeptide RSKAKNPLYRRRRRRRRR, to reverse HEV light (‘blue light”) induced damage to human keratinocytes was examined. In brief, Human Epidermal Keratinocytes (NHEK) which are representative of the epidermis were exposed to HEV light in the presence of the polypeptide RSKAKNPLYRRRRRRRRR, or untreated in the presence of the polypeptide RSKAKNPLYRRRRRRRRR.
The expression of Aquaporin 3 in cells (e.g. aquaporin 3 positive cells_was measured. Aquaporin 3 is found in the basolateral cell membrane and provides a pathway for water to exit cells. It is expressed in various tissues including the skin.
The experiment was carried out in quintuplicate in the following conditions (n=5): • Untreated NHEK • NHEK+IK14800 2,5 μM • NHEK+IK14800 5 μM • NHEK+IK14800 10 μM • NHEK+Blue light • NHEK+Blue light+IK14800 2.5 μM • NHEK+Blue light+IK14800 5 μM • NHEK+Blue light+IK14800 10 μM
Chronic blue light irradiation: one exposure per day for 3 days (220 joules—wavelength 470 nm). 4 days of treatment with the peptide (24 h before exposure to blue light and during the 3 days. The peptide was resuspended in milliQ water then diluted in the cell culture medium.
After treatment, the cells were washed and fixed with Formalin.
Finally, the nuclei were labelled with DAPI. The labelled proteins were observed and quantified by automated fluorescence microscopy Cellinsight CX7 High-Content Screening Platform (Thermofischer Data analysis
A statistical analysis was performed using Mann-Whitney by Prism software. The significance is correlated with the p-value: ns=no significant, […], **p-value<0.01, ***p-value<0.001.).

[3] = test system: TGFβRII; experiment: TGFβRII expression by Western analysis in UV-irradiated dermal fibroblasts; type: cell-based, human; details: 1-10 μM added immediately following UV; 5 h post UV treatment; primary fibroblasts
Procedure: Human skin dermal fibroblasts were cultured from keratome biopsies of healthy adult human skin. Cells were between passages three and six. For UV irradiation, subconfluent cells were washed once with phosphate-buffered saline (PBS) and irradiated with UV. Immediately following irradiation, negative control (vehicle) or 1 μM, 2.5 μM, 5 μM and 10 μM of IK34720 (“IK” in FIG. 3B, SEQ ID NO: 3) were added to the cell cultures.
For Western analysis, nuclear extracts were prepared, membrane fractions were prepared and resolved on 8% SDS-polyacrylamide gel electrophoresis, transferred to polyvinylidene difluoride membrane, and reacted with primary antibodies. Blots were visualized and quantified.

Sequence: RSKAKNPLYRRRRRRRRR (not fully specified (some residues)) [IK34720]
- UV-induced phosphorylation of serine at position 133 of CREB [1]: inhibits UV-induced phosphorylation
- increase in number of Aquaporin 3 positive cells ([2]; 5 μM): +20%
- increase in number of Aquaporin 3 positive cells ([2]; 10 μM): +27%
- basal expression of Aquaporin 3 ([2]; 2.5, 5, 10 μM): restores the basal expression of Aquaporin 3 in a dose dependent manner
- TGFβRII expression in UV treated cells [3]: restored TGFβRII expression
